{"source": "patent US7973219B2", "about": "“Method for producing transgenic plants resistant to weed control compounds which disrupt the porphyrin pathways of plants” (Sumitomo Chemical Company, Limited, priority 1998, dated 2011)", "key": {"[1]": {"system": "tobacco introduced with the gene encoding the variant barley ferrochelatase", "assay": "Leaf piece chlorophyll test, tobacco with gene encoding variant barley ferrochelatase", "type": "in vivo", "conditions": "Table 12; for Resistant level to test compound: same manner as Example 6 (0.3 ppm), treated vs untreated leaf pieces; for Total chlorophyll content treated-leaf: same manner as Example 6 (0.3 ppm, 7 days in light)", "source_text": "The tobacco leaves into which bchH gene was introduced and control recombinant tobacco leaves obtained in Example 5 were collected and each leaf was divided into the right and left equivalent pieces along the main vein, respectively. To one piece was applied an aqueous solution containing 0.3 ppm PPO inhibitory-type herbicidal compound of Structure 8, while, to the other piece was not applied the compound. These leaf pieces were placed on MS medium containing 0.8% agar and allowed to stand at room temperature for 7 days in light place. Then, each leaf piece was ground with pestle and mortar in 5 ml of 80% aqueous acetone solution to extract chlorophyll. The extract liquid was diluted with 80% aqueous acetone solution and the absorbance was measured at 750 nm, 663 nm and 645 nm to calculate total chlorophyll content according to the method described by Macknney G., J. Biol. Chem. (1941) 140, p 315. The results obtained from 4 clones of tobacco into which bchH gene was introduced (BCH1 to 4) and control recombinant tobacco is shown in Table 4. In the table, the resistant level to the herbicidal compound was represented by percentages of the total chlorophyll content of leaf pieces treated with herbicidal compound to that of untreated leaf pieces.\nLeaf pieces of tobacco cultured sterilely were infected with said Agrobacterium strain and, according to the same manner as in Example 5, tobacco into which the gene encoding the variant barley ferrochelatase was introduced was obtained.\nThe level of resistance to the PPO inhibitory-type herbicidal compound represented by Structure 8 was confirmed quantitatively by testing tobacco into which the gene encoding the variant barley ferrochelatase prepared in Example 21 was introduced according to the same manner as in Example 6. The results obtained from 4 clones (HVF 1-4) of tobacco introduced with the gene encoding the variant barley ferrochelatase and control recombinant tobacco are shown in table 12. In the table, the resistant levels to the herbicidal compound are represented by percentages of the total chlorophyll content of leaf pieces treated with herbicidal compound to that of untreated leaf pieces."}, "[2]": {"system": "E. coli BT3/pACYCSP+pHASYS4 strain", "assay": "Growth of E. coli BT3/pACYCSP+pHASYS4 with herbicidal compound", "type": "cell-based, Escherichia coli", "conditions": "1 ppm, 18 hours culture, Table 16", "source_text": "According to the description of Gibson, L. C. D. et al., Proc. Natl. Acad. Sci. USA, 92; p 1941 (1995), the DNA fragment containing bchH gene prepared in Example 1 was digested with the restriction enzymes NdeI and BglII. The resultant DNA fragment was inserted between NdeI restriction site and BamHI restriction site of expression vector pET11a (manufactured by Stratagene) to obtain plasmid pETBCH (FIG. 1). This plasmid pETBCH was introduced into E. coli BL21(DE3) strain competent cells (manufactured by Stratagene) according to the manual attached to the competent cells to obtain E. coli BL21(DE3)/pETBCH strain. The strain was inoculated into 1.5 ml LB liquid culture medium (1% tryptone, 0.5% yeast extract, 0.5% NaCl) containing 100 μg/ml ampicillin in a tube (14×10 mm), and the tube was covered with aluminum foil (hereinafter referred to as dark conditions), cultured with shaking at 37° C. under light of fluorescent lamp (about 8000 lux). When the absorbance at 600 nm of the liquid culture medium became about 0.6, isopropyl β-D-thiogalactopyranoside (IPTG) was added to the liquid culture medium so that the final concentration was 0.4 mM, and the culture was continued for about additional 20 hours. […]"}, "[3]": {"system": "E. coli BT3/pACYCSP+pHASYS8 strain", "assay": "Growth of E. coli BT3/pACYCSP+pHASYS8 with herbicidal compound", "type": "cell-based, Escherichia coli", "conditions": "1 ppm, 18 hours culture, Table 16"}}, "data": [{"smiles": "C#CCOc1cc(N2C(=O)C3=C(CCCC3)C2=O)c(F)cc1Cl", "note": "[Structure 8]", "values": [{"measurement": "Resistant level to test compound", "setting": "[1]; clone HVF-1", "result": 106, "unit": "%"}, {"measurement": "Total chlorophyll content treated-leaf", "setting": "[1]; clone HVF-1", "result": 0.930, "unit": "mg/g-fresh weight"}, {"measurement": "Resistant level to test compound", "setting": "[1]; clone HVF-2", "result": 102, "unit": "%"}, {"measurement": "Total chlorophyll content treated-leaf", "setting": "[1]; clone HVF-2", "result": 1.16, "unit": "mg/g-fresh weight"}, {"measurement": "Resistant level to test compound", "setting": "[1]; clone HVF-3", "result": 98.1, "unit": "%"}, {"measurement": "Total chlorophyll content treated-leaf", "setting": "[1]; clone HVF-3", "result": 1.04, "unit": "mg/g-fresh weight"}, {"measurement": "Resistant level to test compound", "setting": "[1]; clone HVF-4", "result": 95.9, "unit": "%"}, {"measurement": "Total chlorophyll content treated-leaf", "setting": "[1]; clone HVF-4", "result": 1.42, "unit": "mg/g-fresh weight"}, {"measurement": "Relative absorbance", "setting": "[2]; in the dark", "result": 1.0}, {"measurement": "Relative absorbance", "setting": "[2]; in the light", "result": 0.91}, {"measurement": "Relative absorbance", "setting": "[3]; in the dark", "result": 1.0}, {"measurement": "Relative absorbance", "setting": "[3]; in the light", "result": 0.57}]}]}
